According to ChEMBL document CHEMBL5257038, “Active Natural Product Scaffolds against Trypanosomatid Parasites: A Review” (J Nat Prod, 2018):
Values belong to the compound of their own block, whether it stands above or below them.

Assays:
Leishmania donovani [1] = experiment: Antileishmanial activity against amastigote form of Leishmania donovani assessed as parasite growth inhibition; assay type: functional, organism-based
Trypanosoma cruzi [2] = experiment: Antitrypanosomal activity against intracellular Trypanosoma cruzi amastigote assessed as reduction in parasite growth; assay type: functional, organism-based
[3] = Selectivity index, ratio of IC50 for cytotoxicity against African green monkey Vero cells to IC50 for antitrypanosomal activity against Trypanosoma cruzi amastigote; assay type: toxicity, cell-based; conditions: read-out: Ratio IC50
[4] = Selectivity index, ratio of IC50 for cytotoxicity against African green monkey Vero cells to IC50 for antileishmanial activity against amastigote form of Leishmania donovani; assay type: toxicity, cell-based; conditions: read-out: Ratio IC50
[5] = tested on: Trypanosoma brucei brucei; experiment: Antitrypanosomal activity against bloodstream form of Trypanosoma brucei brucei assessed as reduction in parasite growth; assay type: functional, organism-based
[6] = Selectivity index, ratio of CC50 for cytotoxicity against HEK293T cells to EC50 for antitrypanosomal activity against bloodstream form of Trypanosoma brucei brucei; assay type: toxicity, cell-based; conditions: human, read-out: Ratio CC50/EC50
[7] = Selectivity index, ratio of CC50 for cytotoxicity against human HepG2 cells to EC50 for antitrypanosomal activity against bloodstream form of Trypanosoma brucei brucei; assay type: toxicity, cell-based; conditions: read-out: Ratio CC50/EC50
[8] = tested on: Trypanosoma cruzi (intracellular amastigotes); experiment: Antiparasitic activity against Trypanosoma cruzi intracellular amastigotes assessed as reduction in cell viability at 50 uM relative to control
[9] = tested on: Trypanosoma cruzi (intracellular amastigotes); experiment: as above; remark: listed apart in the source
Leishmania donovani [10] = experiment: Antileishmanial activity against Leishmania donovani intracellular amastigotes assessed as parasite growth inhibition; assay type: functional, organism-based
Trypanosoma cruzi [11] = experiment: Antitrypanosomal activity against epimastigote form of Trypanosoma cruzi assessed as reduction in parasite growth; assay type: functional, organism-based
Leishmania major = experiment: Antileishmanial activity against Leishmania major promastigotes assessed as parasite growth inhibition; assay type: functional, organism-based
[12] = tested on: Trypanosoma brucei brucei; experiment: Antitrypanosomal activity against Trypanosoma brucei brucei; assay type: functional, organism-based
[13] = Selectivity index, ratio of EC50 for cytotoxicity against African green monkey Vero cells to EC50 for antitrypanosomal activity against Trypanosoma brucei brucei; assay type: toxicity, cell-based; conditions: read-out: Ratio EC50
[14] = Selectivity index, ratio of EC50 for cytotoxicity against African green monkey Vero cells to EC50 for antitrypanosomal activity against epimastigote form of Trypanosoma cruzi; assay type: toxicity, cell-based; conditions: read-out: Ratio EC50
[15] = Selectivity index, ratio of EC50 for cytotoxicity against African green monkey Vero cells to EC50 for antileishmanial activity against Leishmania major promastigotes; assay type: toxicity, cell-based; conditions: read-out: Ratio EC50
Leishmania mexicana = experiment: Antileishmanial activity against Leishmania mexicana promastigotes assessed as parasite growth inhibition; assay type: functional, organism-based
Leishmania amazonensis [16] = experiment: Antileishmanial activity against Leishmania amazonensis promastigotes assessed as parasite growth inhibition; assay type: functional, organism-based
Trypanosoma cruzi [17] = experiment: In vivo antitrypanosomal activity against Trypanosoma cruzi infected in mouse assessed as fold reduction in parasitemia measured upto 30 days; assay type: functional; conditions: time <= 30 day
Trypanosoma cruzi [18] = experiment: In vivo antitrypanosomal activity against Trypanosoma cruzi infected in mouse assessed as survival rate measured upto 30 days relative to control; assay type: functional; conditions: time <= 30 day
Trypanosoma brucei [19] = experiment: Antitrypanosomal activity against Trypanosoma brucei; assay type: functional, organism-based
Leishmania amazonensis [20] = experiment: Antileishmanial activity against Leishmania amazonensis intracellular amastigotes assessed as parasite growth inhibition; assay type: functional, organism-based
[21] = Selectivity index, ratio of CC50 for cytotoxicity against mouse J774.G8 cells to IC50 for antileishmanial activity against Leishmania amazonensis promastigotes; assay type: toxicity, cell-based; conditions: read-out: Ratio CC50/IC50
[22] = tested on: Trypanosoma brucei rhodesiense; experiment: Antitrypanosomal activity against bloodstream form of Trypanosoma brucei rhodesiense assessed as parasite growth inhibition; assay type: functional, organism-based
[23] = Selectivity index, ratio of CC50 for cytotoxicity against rat L6 cells to IC50 for antitrypanosomal activity against bloodstream form of Trypanosoma brucei rhodesiense; assay type: toxicity, cell-based; conditions: read-out: Ratio CC50/IC50
[24] = Selectivity index, ratio of CC50 for cytotoxicity against rat L6 cells to IC50 for […] activity against amastigote form of Leishmania donovani; assay type: toxicity, cell-based; conditions: read-out: Ratio CC50/IC50
Leishmania amazonensis [25] = experiment: Antileishmanial activity against Leishmania amazonensis amastigotes assessed as parasite growth inhibition; assay type: functional, organism-based
Trypanosoma brucei [26] = experiment: Antitrypanosomal activity against bloodstream form of Trypanosoma brucei assessed as parasite growth inhibition; assay type: functional, organism-based
Trypanosoma brucei [27] = experiment: In vivo antitrypanosomal activity against Trypanosoma brucei infected in mouse assessed as cured animal rate at 10 mg/kg administered once daily for 7 days relative to control; assay type: functional; conditions: time 7 day
[28] = Inhibition of Trypanosoma brucei CLK1
Trypanosoma cruzi [29] = experiment: Antitrypanosomal activity against trypomastigote form of Trypanosoma cruzi assessed as reduction in parasite growth; assay type: functional, organism-based
Trypanosoma cruzi [30] = experiment: In vivo antitrypanosomal activity against Trypanosoma cruzi infected in mouse assessed as survival rate measured upto 50 days relative to control; assay type: functional; conditions: time <= 50 day

EC50 (Trypanosoma cruzi [2]): 6.5 µM
SMILES: C/C1=C/C(=O)O[C@H](C(C)(C)C)CCC[C@H](O)CCC[C@H](O)CCC[C@H](O)CCC[C@@H](O)C[C@@H](O)C[C@H](O)CCC[C@@H](O)CCC[C@@H](O)C[C@@H](O)CCCCC1
EC50 (Leishmania donovani [1]): 3000 nM
selectivity ratio [3]: 2
selectivity ratio [4]: 1

EC50 [5]: 5.3 µM
SMILES: C=C1CO[C@H]2/C=C(\C)CC[C@@H]3O[C@@]3(C)CC/C=C(\C)CC[C@@]12O
selectivity ratio [6]: > 20
selectivity ratio [7]: > 20
Activity [8]: 15.2%
Activity [9]: 15.2%

SMILES: C=C(C)[C@H]1[C@H]2[C@@H](OC(C)=O)C[C@@H](C)[C@@H]3C(OC)C=C(C)[C@@]213 (some centres not stated)
EC50 (Leishmania donovani [10]): 5 µM

EC50 (Trypanosoma cruzi [11]): 12.7 µM
EC50 [12]: 5.1 µM
SMILES: CCOC1C[C@H](CCCCOCc2ccccc2)O[C@H](Cn2cc([C@@H]3CCC[C@H](CCCCOCc4ccccc4)O3)nn2)C1 (some centres not stated)
EC50 (Leishmania major): 15.3 µM
selectivity ratio [13]: 100
selectivity ratio [14]: 39
selectivity ratio [15]: 33

SMILES: C=C1C(=O)O[C@@H]2[C@H]1CC[C@H](C)[C@@H]1CCC(=O)O[C@@]21C
EC50 (Trypanosoma cruzi [11]): 2.3 µM
EC50 (Trypanosoma cruzi [2]): 3.4 µM
EC50 (Leishmania mexicana): 4500 nM
EC50 (Leishmania amazonensis [16]): 5.7 µM
fold change (FC) (Trypanosoma cruzi [17]): 2
Survival (Trypanosoma cruzi [18]): 20%

SMILES: C/C=C/[C@]1(C)C[C@@](/C=C(\C)C[C@@H](CC)CC/C=C/CC)(CC)OO1
EC50 (Trypanosoma brucei [19]): 5 µM

SMILES: C=C1CC[C@@H](OC(C)=O)[C@H]2CC=C3[C@](C)(CC[C@]3(O)C(C)C)C[C@]12O
EC50 (Leishmania amazonensis [16]): 5.5 µM
EC50 (Leishmania amazonensis [20]): 18 µM
selectivity ratio [21]: 93

EC50 [22]: 800 nM
EC50 (Trypanosoma cruzi [2]): 120 µM
SMILES: NC1=N[C@]2([C@H](O)N1)[C@@H](Cl)[C@H](CCl)[C@H]1CN3C(=O)c4cc(Br)c(Br)n4[C@@H]4NC(N)=N[C@@]43[C@@H]12
EC50 (Leishmania donovani [1]): 1900 nM
selectivity ratio [23]: 10
selectivity ratio [24]: 4

SMILES: CC(C)[C@@H](C)/C=C/[C@@H](C)[C@H]1CC[C@@H]2[C@]1(C)CC[C@H]1[C@]23C=C[C@]2(C[C@@H](O)CC[C@]12C)OO3 [ERGOSTEROL PEROXIDE]
EC50 (Trypanosoma cruzi [11]): 16.8 µM
EC50 (Leishmania amazonensis [16]): 13.9 µM
EC50 (Leishmania amazonensis [25]): 4 µM

EC50 (Trypanosoma brucei [26]): 170 nM
SMILES: COc1cc(O)c2c(c1)[C@H]1O[C@@H]1C[C@H](O)[C@H](O)C(=O)/C=C\C[C@H](C)OC2=O [HYPOTHEMYCIN]
Activity (Trypanosoma brucei [27]): 33%
IC50 [28]: 150 nM

SMILES: C=C1C(=O)O[C@@H]2[C@H]1CC[C@H](C)[C@]1(CCC(=O)O1)[C@@]2(C)O [PSILOSTACHYIN A]
EC50 (Trypanosoma cruzi [11]): 4.3 µM
EC50 (Trypanosoma cruzi [29]): 12.5 µM
EC50 (Leishmania mexicana): 420 nM
fold change (FC) (Trypanosoma cruzi [17]): 1.5
Survival (Trypanosoma cruzi [30]): 100%
